Holding throughout (experiment): NCI anticancer screen, dose series, 48 h
Test [1] relates to CAKI-1 renal.
Test [2] has as its system DU-145 prostate.
Test [3] relates to HS 578T breast.
Test [4] concerns K-562 leukemia.
The test system of test [5] is M14 melanoma.
Test [6] concerns MCF7 breast.
Test [7] relates to NCI-H23 lung.
The test system of test [8] is NCI-H460 lung.
In test [9] the test system is NCI/ADR-RES ovarian.
Test [10] has as its system SF-539 CNS.
Test [11] relates to SK-MEL-28 melanoma.
For test [12], the system named is SNB-19 CNS.
Test [13] has as its system TK-10 renal.

Structures are written as SMILES.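 How tested: cells in 96-well plates exposed to compound for 48 hours at five concentrations. TGI: total growth inhibition.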

Take `CN(C)Cc1cc(C(=O)/C=C/c2cccc(Cl)c2)cc(CN(C)C)c1O`: the TGI in test [1] is 4.3 µM; in [2] it was 19.2 µM; in test [3], 32.7 µM; in test [4], 11.4 µM; in test [5], 15.5 µM; in [6], 23.3 µM. Moreover, the TGI in test [7] was 37.9 µM; in [8], 11.4 µM; in test [9] it was over 100 µM; in test [10] it was 19.5 µM; in test [11] it was 17.1 µM; in test [12], 69.9 µM. The same molecule showed a TGI in test [13] of 22 µM.

As to `O=[N+]([O-])c1ccc2c(Nc3ccccc3-c3ccccc3Nc3c4ccccc4nc4cc([N+](=O)[O-])ccc34)c3ccccc3nc2c1`, the TGI came out at 50.6 µM in test [1]; 35.2 µM in test [2]; 14.9 µM in test [3]; 15.5 µM in test [4]; 18.4 µM in test [5]; 39.3 µM in [6]. The TGI in test [7] amounted to 34.7 µM; in test [8], 15.3 µM; in [9], 25.7 µM; in test [10], 39.5 µM; in test [11], 59.1 µM; in [12], 43.8 µM. In [13], this molecule showed a TGI of 36.9 µM.

Turning to `O=S(=O)(O)c1cc(O)c2c(O)c(N=Nc3cccc4ccccc34)c(S(=O)(=O)O)cc2c1`, the TGI in test [1], in test [2], in test [3], in test [4], in test [5] and in test [6] was over 100 µM throughout. The TGI in [7], in test [9], in test [10], in test [11], in [12] and in [13] was over 100 µM throughout.

As for `Oc1nc(N/N=C/c2ccccc2)[nH]c1/C=C1\C=Nc2ccccc21`, the TGI in [1], in test [2], in test [3], in [4], in [5] and in test [6] was over 100 µM throughout. The TGI in test [7], in test [8], in [9], in test [10], in [11] and in [12] was over 100 µM throughout. Moreover, the TGI in test [13] was over 100 µM.

Regarding `Cc1ccc(S(=O)(=O)c2ccc([N+](=O)[O-])o2)cc1`, the TGI in test [1] stood at 1.54 µM; in test [2], 8.58 µM; in test [3], 13.4 µM; in test [5], 3.82 µM; in [6], 7.13 µM; in test [7], 13 µM. For the same molecule, the TGI in test [8] is 33.4 µM; in test [9] it was 5.36 µM; in [10], 3.34 µM; in test [11], 3.81 µM; in test [12] it was 40.4 µM; in test [13], 3.04 µM.

For `COc1cc(OC)c2c(O)c(S(=O)(=O)c3ccc(C)cc3)c(=O)oc2c1`, the TGI in test [1], in test [2], in [3], in test [4], in test [5] and in [6] was over 100 µM in each case. The TGI in test [7], in test [8], in [9], in [10], in test [11] and in [12] was over 100 µM throughout. In [13], this molecule showed a TGI of over 100 µM.

Turning to `CCn1c2ccc(O)c(C(=O)OC)c2c2cc3ccccc3c(O)c21`, the TGI was 33.6 µM in test [1]; 40.8 µM in [2]; 45.2 µM in test [3]; over 100 µM in test [4]; 47.5 µM in test [5]; over 100 µM in test [6]. Also, the TGI in [7] is 52.4 µM; in [8], 54.9 µM; in test [9], 57.2 µM; in test [10], 49.2 µM; in [11], 87.4 µM; in test [12], over 100 µM. Further, the TGI in test [13] came to 55.7 µM.

`COc1cc2c(cc1C)NC(=O)/C2=C\c1ccncc1`: the TGI in test [1] is 16.5 µM; in [2] it was 53.6 µM; in test [3] it was 8.1 µM; in [4], over 100 µM; in test [5], 12.9 µM; in test [6], 11.4 µM. Moreover, the TGI in test [7] came out at 9.28 µM; in test [8], 41.7 µM; in test [9], 10.7 µM; in test [10], 8.45 µM; in test [11], 84.3 µM; in test [12] it was 21.6 µM. The molecule further yielded a TGI in [13] of 21.4 µM.

`O=c1[nH]c2cc3cccnc3c(Cl)c2nc1CBr`: the TGI in test [1] is 31.9 µM; in test [2], 30.4 µM; in test [3] it was 28.3 µM; in [4], over 100 µM; in [5], 27.8 µM; in test [6], 29.2 µM. Further, the TGI amounted to 32.2 µM in [7]; 39.7 µM in test [8]; 53.3 µM in [9]; 26.4 µM in [10]; 19.7 µM in test [12]; 61.8 µM in test [13].

For `Cc1cc(O)ccc1C1(c2ccc(F)cc2)OC(=O)c2ccccc21` (stereo not given), the TGI in [1] was 15.3 µM; in test [2] it was 16.1 µM; in test [3] it was 2.41 µM; in test [4], over 72.9 µM; in [5], 27.1 µM; in test [6] it was 4.38 µM. For the same molecule, the TGI was determined as 3.27 µM in test [7]; 29 µM in test [8]; 2.25 µM in test [9]; 9.29 µM in test [10]; 25.8 µM in [11]; 15.4 µM in test [12]. The molecule also came in with a TGI in test [13] of 15.5 µM.

With `CC(C)C(C/C=C1/CC(CO)(COC(=O)C2CCCCC2)OC1=O)C(C)C` (stereo not given), the TGI in [1] is 37.8 µM; in [2], 28.8 µM; in test [3], 43.5 µM; in test [4] it was over 100 µM; in [5], 38.8 µM; in test [6], 36.3 µM. In addition, the TGI in test [7] was 35.9 µM; in [8] it was 89.6 µM; in test [9], 42.7 µM; in [10] it was 29.1 µM; in [11], 35.1 µM; in test [12], 29.8 µM. Moreover, the TGI in [13] is 37.4 µM.

Values taken from PubChem BioAssay (NCI).
